Measured values as given in patent US6057359A, “Spontaneously dispersible concentrates comprising esters of baccatin-III compounds having antitumor and antiviral activity” (Marigen S.A., priority 1997, dated 2000).

Tests used:
[1] = Micellar size by dynamic light scattering; assay type: physicochemical; details: aqueous emulsion 1:100 of 1%-concentrate; DLS
Description: [Measurement conducted with QLS=quasi-elastic, dynamic light scattering; tests performed at the Federal Institute for Technology, Zurich, Institute for Polymers (Prof. Dr. Pier Luigi LUISI and Prof. Dr. Peter SCHURTENBERGER)]. See: "Mode-selective dynamic light scattering; theory versus experimental realization", Thomas Gisler, et al., Applied Optics/Vol. 34, No. 18/Jun. 20, 1995, pp. 3546-3553.
Measurement conducted with aqueous emulsions 1:100 (CMC-marginal value for a homogenous spreading of the surfactants), prepared from the 1%-concentrates. Method: dynamic light scattering (DLS) in 3 angular positions each (60°, 90° and 120°), and with 10 single measurements taken each time. The instrument is a specially equipped "Fiberoptic Spectrometer" of the Institute for Polymers. Description of the method and the instrument, see: "Mode-selective dynamic light scattering: theory versus experimental realization". Thomas Gisler et al., Applied Optics/Vol. 34, No. 18/Jun. 20, 1995.

[2] = tested on: VERO cells; assay: Cell lysis in VERO cell layers; assay type: cell-based, African green monkey; details: dilution 1:1'000; plaque reduction table
Procedure: (§1) The antiviral/virucidal efficacy against HSV of an aqueous microemulsion prepared with appropriate MARIGENOL®-concentrates was assessed on a confluent monolayer culture of VERO cells (i.e. "African green monkey kidney cells"). The host cells were pretreated during 3 h at 4° C. with an inventive microemulsion or with culture medium alone and then infected with HSV at a constant dose of 10^4 plaque forming units (PFU). After virus absorption during 1 h, and subsequent addition of 2% methylcellulose in order to limit virus spreading, cells were cultured in MEM medium+2% foetal calf serum for 48 h, then fixed and stained with 1% crystal violet in methanol. The reduction of viral titre was expressed as percent reduction of plaques of lysis observed in pre-treated cells, compared to controls.

[3] = tested on: Py6 cells (Virus transformed 3T3 mouse-fibroblasts); assay: Test of cell toxicity / cytotoxicity of MARIGENOL concentrates on Py6 cells (plaque assay, serial dilution); assay type: cell-based; details: for in dilution active up to 1: (microemulsion ME 1:100): dilution of ME 1:100, given in Mio.
Procedure: A biological assay system using microtiter plates and serial dilutions has been developed. Batches of 10^4 tumour cells per ml were set up in culture medium RPMI 1640 and inactivated with 10% of fetal calf serum (GIBCO); they are spread at a density low enough to enable them to grow during the assay, in non-confluent monolayers. Samples are added after 6 to 24 hours, with 100 μl per row, to which 100 μl of medium are added in the first well. Half of this mixture is withdrawn, transferred into the next well and again treated with 100 μl of medium, etc.
[…] They are then stained and fixed using 0.1% crystal violet (Fluka, Buchs) in a solution of 70% of methanol, 1% of formaldehyde and 29% of water. The samples are evaluated under the microscope, magnification 300×. The greatest cytotoxic dilution is determined. The samples can also be evaluated quantitatively by means of scanning and absorption measurement in a spectrophotometer.
N.B.: On the subject of the eternalized Py6-cells cf.: "Biochemistry", Coordinating Editor Geoffrey L. Zubay, Addison-Wesley Publishing Company, 1983, p.1079.

[4] = tested on: Herpes-Virus (Herpes Simplex, HSV); assay: Antiviral/virucidal efficacy against HSV, plaque reduction in VERO cells; assay type: cell-based; details: compared to simple medium, 2880 min
Procedure: as §1
Infection was also detected by IFA at 24 h after inoculation, using a Mab specific for a glycoprotein common to HSV-1/HSV-2 (clone FQ 12, Argene Biosoft, BIOLINE, Torino).
The following test substances were assessed as concentrates in aqueous dilution (starting with a microemulsion 1:100): […]

[5] = tested on: LEUKEMIA K 562; assay: Vitality/proliferation test (Tritium), leukemia K 562; assay type: cell-based, human; details: controls 50'037 cpm
Description: (§2) 4.0 Comparative assays with human tumor cell lines
(§3) VITALITY TEST/1%-MARIGENOL-CONCENTRATE
(§4) 1 × 10^4 cells per well
(§5) Proliferation test (Tritium: 1 μCi/well H^+)

[6] = cited from earlier work
[7] = tested on: LEUKEMIA DAUDI-LINE; assay: Vitality/proliferation test (Tritium), leukemia Daudi-line; assay type: cell-based, human; details: controls 23'090 cpm
Description: as §2, §3, §4, §5

[8] = tested on: HIV isolates from patients (strains 21/4 and 4/5); assay: Effect on HIV infectivity, residual HIV titre (direct antiviral efficacy); assay type: cell-based; details: mean titre of 2 strains, 3 h, +4° C.
Procedure: Aliquote amounts of two HIV isolates from patients (strains 21/4 and 4/5) resuspended in complete RPMI medium at a titre of 300 CCID50 /ml were incubated during 3 hours, +4° C. with MARIGENOL®-concentrate, in the form of an aqueous microemulsion, at concentrations ranging from 10^-2 to 10^-5 in complete medium, as well as with ("empty") carrier concentrate and with medium alone as controls.
After pre-incubation, residual HIV titre was assessed by the CCID50 method (Cell-culture infecting dose 50%). Briefly, serial twofold dilutions were prepared from each of the six virus suspensions, and 200 μl of each dilution were incubated for 90 minutes with MT-4 cell pellets prepared as stated before (see 7.1). At the end of incubation, pellets were brought to initial cell concentration by adding appropriate amounts of complete RPMI medium to each tube, whose content was then distributed into 8 wells of a flat-bottom microtitre plate in 200 μl volumes, each vertical row coresponding to a dilution. After 5 days of incubation, cell viability was assessed by the MTT test as stated above, and the HIV titre was expressed as the reciprocal of that dilution which infects 4 out of 8 wells (50%) in a row. A well was considered infected when its O.D. readout at 550 nm was lower than the average readout of 8 control wells minus 2.8 times the standard error of the mean (lower 95% confidence limit).

[9] = tested on: human CMV-strain AD169; assay: Virucidal efficacy on human cytomegalovirus (immunofluorescence); assay type: cell-based; details: control 15'000
Procedure: The assay was conducted with human, embryonic Lung Fibroblasts as host cells, which were then infected with the human CMV-strain AD169.
The virus strain was incubated during 4 h at +4° C. with varying concentrations of the test substance C16:0 -β-Sitosteryl ester, formulated as a 1%-concentrate and diluted to aqueous microemulsions 10^-3, 10^-4 and 10^-5. It was subsequently inoculated on monolayers of human embryonic lung fibroblasts (which are very susceptible to the CMV-virus). These host cells were grown in shell vials in minimal essential medium (MEM, GIBCO, Life Technologies), containing 10% fetal calf serum. A confluent culture was raised with 120,000 cells per shell-vial. The infection was effected by means of centrifugation during 45 minutes at 1'500 rpm at RT. Thereafter, the injection-suspension was eliminated and 1 ml medium MEM+2% FCS was added (same medium as before). The infected cell culture was maintained during 20 h at 37° C., in a 5%-CO2 -atmosphere. […]
Quantification of the virucidal effect was measured with an immunofluorescence assay. […]
This is followed by 3 washing operations with PBS and a second incubation with the fluorescence-marked antibody IgG goat anti-IgG mouse. […]
The number of IEA-positive cells was recorded. The nuclei which were positive against the CMV-specific antigen were counted by means of the fluorescence microscope, magnification 25×, in aqueous phase.

[10] = tested on: HIV strain III B; assay: Protective effect on MT-4 host cells against HIV infection (MTT); assay type: cell-based; details: stock ultramicroemulsions, 10^-3 to 10^-4, concentration not stated
Procedure: MT4-cells (an immortalized T-cell line highly sensitive to HIV cytopathoge-nic effect, CPE) of a 24 h-old culture were suspended at a concentration of 2×10^5 /ml, divided into 1.2 ml aliquotes in polypropylene tubes, and pelleted by centrifugation. Pellets were either infected with 200 μl of a stock solution of HIV strain III B (Titre: 600 CCID50 /ml), or mock-infected with plain medium, for 90 min. at 37° C, upon which 1 ml of plain medium was added to each tube, restoring initial cell concentration and bringing HIV concentration to 100 CCID50 /ml. [CCID50 /ml=50% cell culture infective dose].
100 μl volumes of the MARIGENOL®-Concentrates to be tested, diluted to aqueous microemulsions 10^-3 and then further diluted from 10^-3 to […] in RPMI 1640 medium, or of plain medium, were added in triplicate to flat-bottom, 96-well microtitre plates. […]
Cultures were incubated at 37° C., in a humified atmosphere of 5% CO2 +95% air. Five days after infection, 100 μl of supernatant were removed from each well, and cell viability was assessed by reduction of a methyl-tetrazolium salt (MTT, Sigma, 25 μl/well of a 5 mg/ml solution) in a 2-h incubation test, followed by solubilization with 100 μl DMSO/well and photometric readout of the optical density at 550 nm. Residual cell viability was expressed as percent difference from HIV CPE-control cultures mean readout, considered as zero.

Structure (SMILES): C=CCCCCCCCCC(=O)Oc1cc(OC(=O)CCCCCCCCC=C)c2c(=O)c(OC(=O)CCCCCCCCC=C)c(-c3ccc(OC(=O)CCCCCCCCC=C)c(OC(=O)CCCCCCCCC=C)c3)oc2c1 [QUERCETIN-PENTA-UNDECENOATE, Quercetin-penta-10-undecenoate]
- MICELLAR SIZE in nm [1]: 2-3 nm
- Cell-Lysis [2]: Cell-Lysis
- in dilution active up to 1: (calculated on active substance content, A.S.) ([3]; 24 h exposure): 25.6 Mio.
- in dilution active up to 1: (calculated on active substance content, A.S.) ([3]; 48 h exposure): 100 Mio.
- in dilution active up to 1: (microemulsion ME 1:100) ([3]; 48 h exposure): 1 Mio.
- in dilution active up to 1: (calculated on active substance content, A.S.) ([3]; 72 h exposure): 200 Mio.
- in dilution active up to 1: (microemulsion ME 1:100) ([3]; 72 h exposure): 2 Mio.
- Percent reduction of plaques in VERO cell monolayers ([4]; dilution 1:10'000): 48%
- Percent reduction of plaques in VERO cell monolayers ([4]; dilution 1:100'000): 0%

Structure (SMILES): CC(=O)O[C@H]1C(=O)[C@@]2(C)[C@H]([C@H](OC(=O)c3ccccc3)[C@]3(O)C[C@H](O)C(C)=C1C3(C)C)[C@]1(OC(C)=O)CO[C@@H]1C[C@@H]2O [BACCATIN III-A.S., Baccatin-III]
- Proliferation test % ([5]; 10^-3): 1.3%
- Proliferation test cpm ([5]; 10^-3): 680 cpm
- Proliferation test % ([5]; 10^-4): 1.5%
- Proliferation test cpm ([5]; 10^-4): 757 cpm
- Proliferation test % ([5]; 10^-5): 6.3%
- solubility in water [6]: very low
- in dilution active up to 1: (calculated on active substance content, A.S.) ([3]; 24 h exposure): 12.8 Mio.
- in dilution active up to 1: (calculated on active substance content, A.S.) ([3]; 48 h exposure): 12.8 Mio.
- in dilution active up to 1: (calculated on active substance content, A.S.) ([3]; 72 h exposure): 100 Mio.
- in dilution active up to 1: (microemulsion ME 1:100) ([3]; 72 h exposure): 1 Mio.
- Proliferation test % ([7]; 10^-3): 3.0%
- Proliferation test cpm ([7]; 10^-3): 708 cpm
- Proliferation test % ([7]; 10^-4): 3.4%
- Proliferation test cpm ([7]; 10^-4): 795 cpm
- Proliferation test % ([7]; 10^-5): 61.4%

Structure (SMILES): CCCCCCCCCCCCCCCC(=O)O[C@H]1CC[C@@]2(C)C(=CC[C@H]3[C@@H]4CC[C@H]([C@H](C)CC[C@@H](CC)C(C)C)[C@@]4(C)CC[C@@H]32)C1 [β-SITOSTERYL-PALMITATE, 3β-Stigmast-5-en-3-palmitate]
- RESIDUAL HIV TITRE (CCID50) ([8]; concentrate 1'000 ppm, active substance 10 ppm): 2 CCID50
- RESIDUAL HIV TITRE (CCID50) ([8]; concentrate 10 ppm, active substance 0.1 ppm): 120 CCID50
- RESIDUAL HIV TITRE (CCID50) ([8]; concentrate 50 ppm, active substance 0.5 ppm): 76 CCID50
- RESIDUAL HIV TITRE (CCID50) ([8]; concentrate 100 ppm, active substance 1 ppm): 50 CCID50
- Cell-Lysis [2]: Cell-Lysis
- Number of the positive nuclei (anti P-72 antigens) ([9]; microemulsion 1:1'000 = 1'000 ppm concentrate): 0
- Number of the positive nuclei (anti P-72 antigens) ([9]; microemulsion 1:10'000 = 100 ppm concentrate): 2
- Percent reduction of plaques in VERO cell monolayers ([4]; dilution 1:10'000): 24%
- Percent reduction of plaques in VERO cell monolayers ([4]; dilution 1:100'000): 0%

Structure (SMILES): CCCCCC(=O)O[C@H]1CC[C@@]2(C)C(=CC[C@H]3[C@@H]4CC[C@H]([C@H](C)CC[C@@H](CC)C(C)C)[C@@]4(C)CC[C@@H]32)C1 [β-Sitosteryl-Caproylate]
- protective action on MT-4 cells against HIV [10]: very remarkable results
- protective action on MT-4 cells against HIV ([10]; listed as β-Sitosterypl-Caproylate): Similar, though less remarkable results

Structure (SMILES): CCCCCCCC/C=C\CCCCCCCC(=O)Oc1ccc2c(c1)CC[C@@H]1[C@@H]2CC[C@]2(C)[C@@H](OC(=O)CCCCCCC/C=C\CCCCCCCC)CC[C@@H]12 [β-ESTRADIOL-DI-OLEATE]
- MICELLAR SIZE in nm [1]: 2-3 nm
